Test results: BindingDB's records for doi:10.1021/acs.jmedchem.8b00931 (Umr 7273 Cnrs, 2018)
pEC50: −log10 of the molar value.

How the values were obtained:
[1] = Inhibition of Rhinovirus B14 capsid infected in human HeLa Rh cells assessed as reduction in virus-induced cytopathic effect after 3 days by MTS assay
[2] = Inhibition of Rhinovirus A02 capsid infected in human HeLa Rh cells assessed as reduction in virus-induced cytopathic effect after 3 days by MTS assay
[3] = Inhibition of Rhinovirus A89 capsid infected in human HeLa Rh cells assessed as reduction in virus-induced cytopathic effect after 3 days by MTS assay
[4] = Inhibition of Rhinovirus A85 capsid infected in human HeLa Rh cells assessed as reduction in virus-induced cytopathic effect after 3 days by MTS assay
[5] = Inhibition of Rhinovirus A08 capsid infected in human HeLa Rh cells assessed as reduction in virus-induced cytopathic effect after 3 days by MTS assay
[6] = Inhibition of Rhinovirus A28 capsid infected in human HeLa Rh cells assessed as reduction in virus-induced cytopathic effect after 3 days by MTS assay
[7] = Inhibition of Rhinovirus B42 capsid infected in human HeLa Rh cells assessed as reduction in virus-induced cytopathic effect after 3 days by MTS assay
[8] = Inhibition of Rhinovirus B70 capsid infected in human HeLa Rh cells assessed as reduction in virus-induced cytopathic effect after 3 days by MTS assay

With `O=[N+]([O-])c1cc(Cl)ccc1CC(O)c1ccc(-n2cccn2)cc1` (stereo not given) the pEC50 [1] was 6.89.
In the case of `Cn1cc(-c2ccc(C[C@@H](O)c3ccc(-n4cccn4)cc3)c([N+](=O)[O-])c2)cn1`, the pEC50 [1] was 5.60, the pEC50 [2] was under 3.89 and the pEC50 [3] was 6.72. It also gave a pEC50 [4] of under 3.89, a pEC50 [5] of under 3.89 and a pEC50 [6] of under 3.89. For the same compound, the pEC50 [7] was under 3.89 and the pEC50 [8] was under 3.89.
Work on `Cn1nc(C(F)(F)F)cc1-c1ccc(CC(O)c2ccc(-c3ccncc3)cc2)c([N+](=O)[O-])c1` (stereo not given) yielded a pEC50 [1] of 6.00.
In the case of `Cn1cc(-c2ccc(C[C@@H](O)c3ccc(-n4cncn4)cc3)c([N+](=O)[O-])c2)cn1`, the pEC50 [1] was under 3.89, the pEC50 [2] was under 3.89 and the pEC50 [3] was 5.82. It also gave a pEC50 [4] of under 3.89, a pEC50 [5] of under 3.89 and a pEC50 [6] of under 3.89. It also gave a pEC50 [7] of under 3.89 and a pEC50 [8] of under 4.70.
In the case of `O=[N+]([O-])c1cc(F)ccc1CC(O)c1ccc(-n2cccn2)cc1` (stereo not given), the pEC50 [1] was 5.06.
With `Cn1cc(-c2ccc(CC(O)c3ccc(-n4cncn4)cc3)c([N+](=O)[O-])c2)cn1` (stereo not given) the pEC50 [1] was 6.74.
In the case of `Cn1cc(-c2ccc(C[C@H](O)c3ccc(-n4cncn4)cc3)c([N+](=O)[O-])c2)cn1`, the pEC50 [1] was 7.22, the pEC50 [2] was under 3.89 and the pEC50 [3] was under 3.89. The pEC50 [4] was under 3.89, the pEC50 [5] was under 3.89 and the pEC50 [6] was under 3.89. The pEC50 [7] was under 3.89 and the pEC50 [8] was 7.30.
Work on `COC(=O)c1ccc(CC(O)c2ccc(-c3ccncc3)cc2)c([N+](=O)[O-])c1` (stereo not given) yielded a pEC50 [1] of 5.19.
Compound `O=[N+]([O-])c1cc(Br)ccc1CC(O)c1ccc(-n2cccn2)cc1` (stereo not given) has a pEC50 [1] of 6.60.
In the case of `Cc1noc(C)c1-c1ccc(CC(O)c2ccc(-n3cncn3)cc2)c([N+](=O)[O-])c1` (stereo not given), the pEC50 [1] was under 3.61.
In the case of `O=[N+]([O-])c1cc(-c2cccs2)ccc1CC(O)c1ccc(-c2ccncc2)cc1` (stereo not given), the pEC50 [1] was 5.89.
With `Cn1nc(C(F)(F)F)cc1-c1ccc(CC(O)c2ccc(-n3cccn3)cc2)c([N+](=O)[O-])c1` (stereo not given) the pEC50 [1] was 6.30.
`O=[N+]([O-])c1cc(Br)ccc1CC(O)c1ccc(-n2cncn2)cc1` (stereo not given) gave a pEC50 [1] of 6.60.
`O=[N+]([O-])c1cc(-c2ccco2)ccc1CC(O)c1ccc(-c2ccncc2)cc1` (stereo not given) gave a pEC50 [1] of 5.92.
`O=[N+]([O-])c1cc(Br)ccc1CC(O)c1ccc(-c2ccncc2)cc1` (stereo not given) showed a pEC50 [1] of 6.23.
Work on `Cn1cc(-c2ccc(C[C@H](O)c3ccc(-n4cccn4)cc3)c([N+](=O)[O-])c2)cn1` yielded a pEC50 [1] of 7.46, a pEC50 [2] of under 3.89 and a pEC50 [3] of 5.62. It also gave a pEC50 [4] of under 3.89, a pEC50 [5] of under 3.89 and a pEC50 [6] of under 3.89. The pEC50 [7] was under 3.89 and the pEC50 [8] was 7.77.
In the case of `Cn1cc(-c2ccc(CC(O)c3ccc(-n4cccn4)cc3)c([N+](=O)[O-])c2)cn1` (stereo not given), the pEC50 [1] was 6.70.
Work on `Cc1cc(CCCOc2c(C)cc(-c3noc(C(F)(F)F)n3)cc2C)on1` [3-(3,5-dimethyl-4-(3-(3-methylisoxazol-5-yl)propoxy)phenyl)-5-(trifluoromethyl)-1,2,4-oxadiazole] yielded a pEC50 [1] of 7.52, a pEC50 [2] of 7.82 and a pEC50 [3] of 8.40. For the same compound, the pEC50 [4] was 7.96, the pEC50 [5] was 6.31 and the pEC50 [6] was 7.82. For the same compound, the pEC50 [7] was under 3.89 and the pEC50 [8] was 6.78.
`Cc1noc(C)c1-c1ccc(CC(O)c2ccc(-n3cccn3)cc2)c([N+](=O)[O-])c1` (stereo not given) gave a pEC50 [1] of under 3.61.
In the case of `O=[N+]([O-])c1cc(-c2cncs2)ccc1CC(O)c1ccc(-n2cncn2)cc1` (stereo not given), the pEC50 [1] was 6.40.
